Measured values from paper PMC7383614, “Computational Design of Enantiocomplementary Epoxide Hydrolases for Asymmetric Synthesis of Aliphatic and Aromatic Diols” (Chembiochem, 2020).

Target: T1, LEH-P (thermostable limonene epoxide hydrolase) (Rhodococcus erythropolis, UniProt Q9ZAG3, T2A/S15P/A19K/E45K/T76K/T85V/N92K/Y96F, form not given)
T1 construct: gene limA; N-terminal hexa-His tag; expressed in E. coli; dimeric
Assay: initial velocities of diol formation, Michaelis-Menten fit
Format: biochemical
Details: buffer and temperature of kinetics not given (activity assays: 50 mM HEPES pH 8, 30 °C); variant SS16 from earlier study, mutations not given; read-out: K M [mM] ^[b]
Source text: initial velocities of diol formation, Michaelis-Menten fit on LEH-P (thermostable limonene epoxide hydrolase)

T1 sequence (Q9ZAG3 whole entry T2A/S15P/A19K/E45K/T76K/T85V/N92K/Y96F, form open): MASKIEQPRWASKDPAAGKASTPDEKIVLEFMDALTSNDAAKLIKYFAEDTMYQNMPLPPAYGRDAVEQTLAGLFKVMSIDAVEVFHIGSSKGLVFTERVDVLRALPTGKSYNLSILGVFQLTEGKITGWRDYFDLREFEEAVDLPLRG

**Q.** For C1CC2OC2C1 (stereo not shown) [1 a, cyclopentene oxide], which Km is on record?
**A.** 54 ± 4 mM
